Experiments:
L1210 cells = test: In vitro uptake by L1210 tumor cells; type: cell-based, mouse; conditions: 24 hours, 10 μg/ml; for Uptake in vitro: average + SD of three determinations
Description: Uptake of DHE or CHE, purified by gel-exclusion chromatography, was measured by extraction of cells after 24 hour incubations in vitro. Cell pellets (20-30 mg) were suspended in 800 μL of phosphate buffer (pH 3.5) and shaken for 3 minutes with 2 ml of a 1:1 mixture of methanol: chloroform. The lower phase was collected by centrifugation and used for measurement of absorbance at 400 nm.
In vitro uptake of DHE, CHE and HPD, hematoporphyrin, mesochlorin and bonellin by tumor cells was studied using L1210 cells incubated for 24 hours with 10 μg/ml concentrations of each respective compound. The cells were then washed for 30 minutes in fresh medium at 37° C. and drug concentrations were determined.

Lewis lung tumor = test: In vivo accumulation in Lewis lung tumor (extraction, fluorescence); conditions: for accumulation of fluorescent components at tumor loci (in words) / Uptake in vivo: 5 mg/kg i.p., 48 hours after injection; for Uptake in vivo: average + SD of three determinations; for fluorescence emission of tumor extracts (in words): excitation 400 nm, FIG. IV
Description: In vivo biological studies were conducted using DHE, CHE, HPD, hematoporphyrin, mesochlorin and bonellin. The Lewis lung tumor was maintained in female C57BL/6 mice by S.C. implant. Seven days after implantation, a respective compound was administered to test mice by i.p. injection at a dosage level of 5 mg/kg. Forty-eight hours after injection, each tumor was excised, weighed and homogenized in 50 mM 4-(2-hydroxyethyl)-1-piperazineethanesulfonic acid buffer (pH7) containing 10 mM cetyltrimethyl ammonium bromide (1 m./100 mg tissue). The resulting homogenates were shaken with 2.5 volumes of methanol: chloroform (1:1) and the phases separated by centrifugation. Under these conditions, fluorescence is quantitatively extracted into the chloroform-rich phase. These extracts were used for determination of fluorescence emission spectra (excitation wave length, 400 nm). […] For analytical studies, the extracts were evaporated and the residue hydrolyzed in 0.5 M HCl at 37° C. for 18 hours.

[1] = tested on: L1210 mouse/leukemia cells; test: Photodynamic effects on cell viability as a function of irradiation wavelength (soft-agar clonogenic assay); type: cell-based; conditions: for Action spectrum: cell viability after irradiation at 620 nm (mean + SD of control percentage) / Action spectrum: cell viability after irradiation at 630 nm (mean + SD of control percentage) / Action spectrum: cell viability after irradiation at 640 nm (mean + SD of control percentage) / Action spectrum: cell viability after irradiation at 650 nm (mean + SD of control percentage): 24 h incubation, 5 g/ml (so in the source), 2000 J/m^2, five minutes; for optimal phototoxic light wave length: cells loaded for 24 hours
Description: In order to determine the photosensitization capacity of DHE and CHE, respectively, comparison in vitro tests were prepared using L1210 mouse/leukemia cells grown in culture using Fischer's medium plus 10 percent horse serum. Cell suspensions (7 mg/ml wet weight) were incubated for 24 hours in growth medium containing the 5 µg/ml of the respective photosensitizer. The cell suspensions were, then, washed for 30 minutes at 37° C. in fresh medium to remove readily diffusible porphyrine.
Irradiation was carried out for five minutes (fluence =2000 J/m^2) using a 100 w tungsten-halogen lamp with a wave length selected via narrow bandpass interference filters (=10 nm). Photodynamic effects on cell viability, as a function of irradiation wavelength, were measured by a soft-agar clonogenic assay in the manner described in Kessel, "Determinants of Hematoporphyrincatalyzed Photosensitization" 36 Photochemical Photobiology pp. 99-101 (1982) which is incorporated herein by reference. Light filters were purchased from the Oriel Corp. of Stanford, CT, and the light flux was measured with a thermopile obtained from the same source.

[2] = Storage stability of aqueous solutions of CHE; type: physicochemical
Description: The storage stability of aqueous solutions of CHE (ph 7.5) is determined at -20° C. and at 4° C. respectively.

Row | Compound | Uptake in vitro (L1210 cells) | accumulation of fluorescent components at tumor loci (in words) (Lewis lung tumor) | Uptake in vivo (Lewis lung tumor) | Action spectrum: cell viability after irradiation at 620 nm (mean + SD of control percentage) [1] | Action spectrum: cell viability after irradiation at 630 nm (mean + SD of control percentage) [1] | Action spectrum: cell viability after irradiation at 640 nm (mean + SD of control percentage) [1] | Action spectrum: cell viability after irradiation at 650 nm (mean + SD of control percentage) [1] | optimal phototoxic light wave length [1] | lethality relative to DHE ([1]; constant flux of 2000 J/M^2, CHE vs DHE) | in vitro accumulation compared between drugs (in words) (L1210 cells) | fluorescence emission of tumor extracts (in words) (Lewis lung tumor) | storage stability of aqueous solution at 4° C. ([2]; pH 7.5, 4° C.) | storage stability of aqueous solution at -20° C. ([2]; pH 7.5, -20° C.)
1 | CC1=C(CCC(=O)O)c2cc3nc(cc4[nH]c(cc4C)cc4[nH]c(cc1n2)cc4C)C(C)(C)C3CCC(=O)O (centres unmarked) [Bonellin, bonellin] | 0.06 µg/100 mg cells | no detectible concentration of fluorescent products at tumor loci | < 0.01 | – | – | – | – | – | – | – | – | – | –
2 | CCC1=C(C)c2cc3[nH]c(cc4nc(cc5[nH]c(cc1n2)c(C)c5CCC(=O)OC(C)C1=C(C)c2cc5[nH]c(cc6nc(cc7[nH]c(cc1n2)c(C)c7CCC(=O)O)C(CCC(=O)O)=C6C)c(C)c5C(C)O)C(CCC(=O)O)C4C)c(C)c3CC (centres unmarked) [CHE, chlorin-hematoporphyrin ester] | – | – | – | 96 + 5 control percentage | 87 + 5 control percentage | 10 + 2 control percentage | 65 + 2 control percentage | 640 nm | 5 fold | almost identical | greater tumor fluorescence emission at 647 nm than at 627 nm | gradual hydrolysis of the ester-linkage | remained stable
3 | Dihematoporphyrin ester [DHE] | 0.49 | accumulation of fluorescent components at tumor loci | 2.1 | 68 + 4 control percentage | 45 + 2 control percentage | 85 + 5 control percentage | 96 + 3 control percentage | 630 nm | – | almost identical | fluorescence at 627 nm only | – | –
